Data taken from patent US20240042019A1, “OPTIMIZED TLR7 LIGANDS AND USES THEREOF” (Genentech, Inc., priority 2021, published 2024).
Read-outs that look alike come from different tables or passages of the source. Oligonucleotides are written 5' to 3', each unit as a sugar letter and its base; * is a phosphorothioate linkage, no mark a phosphodiester; rarer units and linkages stand in square brackets, end groups in braces. Plain capitals give the bases only. m = 2'-O-methyl; r = 2'-OH (RNA); f = 2'-fluoro

Key:
Format in all cases: cell-based
[1] = target: T1, TLR8 (Homo sapiens, UniProt Q9NR97); experiment: PBMC stimulation with DOTAP-complexed RNA ligands, TNF-α ELISA
T1 construct: Peripheral blood mononuclear cells (PBMCs) were obtained from buffy coats from healthy adult donors; endogenous in cells; host or cells: primary human PBMCs from healthy donor buffy coats (TLR8 in monocytes)
T1 sequence (Q9NR97 27-1041): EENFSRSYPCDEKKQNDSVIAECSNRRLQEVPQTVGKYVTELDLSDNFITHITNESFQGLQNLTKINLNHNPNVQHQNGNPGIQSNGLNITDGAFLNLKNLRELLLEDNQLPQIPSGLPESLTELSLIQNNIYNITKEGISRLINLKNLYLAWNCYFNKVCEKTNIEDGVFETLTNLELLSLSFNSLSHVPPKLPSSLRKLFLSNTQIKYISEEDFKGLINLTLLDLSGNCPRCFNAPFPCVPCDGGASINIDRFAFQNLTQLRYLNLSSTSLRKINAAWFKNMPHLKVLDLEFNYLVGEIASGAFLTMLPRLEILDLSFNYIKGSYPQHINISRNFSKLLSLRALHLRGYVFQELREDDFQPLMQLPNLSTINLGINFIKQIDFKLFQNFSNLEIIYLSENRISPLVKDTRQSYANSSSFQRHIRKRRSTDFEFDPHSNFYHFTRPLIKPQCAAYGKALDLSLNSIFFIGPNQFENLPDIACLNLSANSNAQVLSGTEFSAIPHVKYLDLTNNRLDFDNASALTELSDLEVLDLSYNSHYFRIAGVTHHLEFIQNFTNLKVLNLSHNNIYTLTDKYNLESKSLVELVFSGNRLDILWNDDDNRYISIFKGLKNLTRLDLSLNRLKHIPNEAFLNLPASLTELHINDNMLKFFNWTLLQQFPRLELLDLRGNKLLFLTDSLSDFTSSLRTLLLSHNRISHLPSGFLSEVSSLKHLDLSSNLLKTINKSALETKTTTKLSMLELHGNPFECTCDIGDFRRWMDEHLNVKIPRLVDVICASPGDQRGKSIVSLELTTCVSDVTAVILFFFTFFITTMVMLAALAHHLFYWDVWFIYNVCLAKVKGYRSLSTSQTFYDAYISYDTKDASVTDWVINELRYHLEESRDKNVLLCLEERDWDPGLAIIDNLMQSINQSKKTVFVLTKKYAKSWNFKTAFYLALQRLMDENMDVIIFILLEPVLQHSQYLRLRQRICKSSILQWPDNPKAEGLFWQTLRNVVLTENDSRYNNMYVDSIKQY

[2] = target: T2, TLR7 (Homo sapiens, UniProt Q9NYK1); experiment: PBMC stimulation with DOTAP-complexed RNA ligands, IFN-α ELISA
T2 construct: Peripheral blood mononuclear cells (PBMCs) were obtained from buffy coats from healthy adult donors; endogenous in cells; host or cells: primary human PBMCs from healthy donor buffy coats (TLR7 expressed by pDCs)
T2 sequence (Q9NYK1 27-1049): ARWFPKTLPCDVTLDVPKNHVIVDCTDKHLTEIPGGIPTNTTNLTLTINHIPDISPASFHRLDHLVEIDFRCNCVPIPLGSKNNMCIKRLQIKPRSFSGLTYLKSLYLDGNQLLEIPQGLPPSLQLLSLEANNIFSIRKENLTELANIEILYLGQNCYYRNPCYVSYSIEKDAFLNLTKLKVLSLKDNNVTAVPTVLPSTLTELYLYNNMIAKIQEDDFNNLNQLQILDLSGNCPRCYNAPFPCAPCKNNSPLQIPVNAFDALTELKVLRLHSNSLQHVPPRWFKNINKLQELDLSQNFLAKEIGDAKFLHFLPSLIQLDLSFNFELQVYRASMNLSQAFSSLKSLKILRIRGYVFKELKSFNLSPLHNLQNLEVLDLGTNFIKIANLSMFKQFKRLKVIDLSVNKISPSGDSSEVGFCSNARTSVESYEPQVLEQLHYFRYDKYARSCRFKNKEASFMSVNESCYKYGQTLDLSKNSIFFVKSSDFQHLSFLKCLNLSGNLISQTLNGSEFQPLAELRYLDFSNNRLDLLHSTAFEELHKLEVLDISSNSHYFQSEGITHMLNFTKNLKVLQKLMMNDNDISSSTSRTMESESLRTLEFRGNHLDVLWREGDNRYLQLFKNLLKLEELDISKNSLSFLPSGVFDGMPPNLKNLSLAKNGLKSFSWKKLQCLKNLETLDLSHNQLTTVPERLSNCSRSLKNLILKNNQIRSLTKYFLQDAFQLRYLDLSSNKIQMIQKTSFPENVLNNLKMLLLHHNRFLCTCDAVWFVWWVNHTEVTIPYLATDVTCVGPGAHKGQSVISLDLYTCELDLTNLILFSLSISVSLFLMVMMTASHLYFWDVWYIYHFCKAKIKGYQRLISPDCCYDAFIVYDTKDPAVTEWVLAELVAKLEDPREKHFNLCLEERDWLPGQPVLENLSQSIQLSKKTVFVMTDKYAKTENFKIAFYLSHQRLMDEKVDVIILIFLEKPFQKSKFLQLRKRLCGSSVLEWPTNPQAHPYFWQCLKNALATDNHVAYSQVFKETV

[3] = target: T2, TLR7; experiment: PBMC stimulation with p-L-arginine-complexed RNA ligands, IFN-α ELISA; conditions: human PBMCs; for IFN-α secretion (TLR7 activity): p-L-arginine delivery, 16 hours, ELISA (FIG. 7); for IFN-α secretion when co-delivered with 2′3′ cGMP: p-L-arginine complexes with 2′3′ cyclic GMP 5 μg/ml, ORN 0.6 μg/ml (FIG. 12)
Protocol: (§1) Peripheral blood mononuclear cells (PBMCs) were obtained from buffy coats from healthy adult donors. Buffy coat samples were first diluted with an equal volume of phosphate-buffered saline (PBS). Next, PBMCs were isolated via density gradient centrifugation with Lymphoprep density gradient media ([…] Technologies) and SepMate-50 tubes ([…] Technologies). Samples were centrifuged at 1000 g for 15 minutes. After centrifugation, the upper layers were collected by pouring into a new tube, diluted with PBS, and centrifuged at 450×g for 5 minutes. To lyse red blood cells, cell pellets were resuspended with 10 mL Ammonium-Chloride-Potassium (ACK) Lysis Buffer and incubated for 8 minutes at room temperature. After lysis, cells were washed with PBS and passed through two 70 μm cell strainers. Viable cell counts were determined with a Vi-CELL cell counter (Beckman Coulter). […] Guanosine was added between about 20 and about 30 minutes before the addition of poly-[…])-complexed RNA. […] After mixing by pipetting up and down, the reaction was incubated for 10 minutes, pipetted up and down again, and then added to the cells. In some experiments, RNA ligands were used at a final concentration of 0.6 μg/ml. Where indicated as “+2'3' cGMP”, 2'3' cyclic GMP purchased from eMolecules was complexed together with the RNA ligands. The final concentration of 2'3' cyclic GMP was 5 μg/ml. p-L-arginine was adjusted accordingly to keep the mass ratio of nucleic acid:p-L-arginine constant. Cell culture supernatants were collected 15-18 hours after stimulation and stored at -80° C. Cytokines in cell culture supernatants were detected with the BD OptEIA human TNF ELISA Set (BD Biosciences), and either Invitrogen IFN alpha Human Matched Antibody Pair kit (Thermo Fisher Scientific) or Human IFN Alpha Multi-Subtype ELISA Kit (PBL Assay Science). To test the effects of the RNA ligands described in Example 1 on TLR7 and TLR8 activation, PBMCs were stimulated with the RNA ligands using p-L-arginine complex delivery, delivery with DOTAP, or delivery without a carrier. Activity of TLR7 and TLR8 was assessed based on measurements of IFN-α or TNF-α by enzyme-linked immunosorbent assays (ELISA). In this setting, as depicted in FIG. 6, IFN-α induced by small RNAs is derived from TLR7 expressed by pDCs, or from RIG-I expressed by monocytes. In contrast, TNF-α secretion is derived from monocytes and serves as an indication of TLR8 activation. As shown in this figure, the p-L-arginine delivery restricts most of the activation to TLRs. First, the effects of the RNA ligands on TLR7 and TLR8 activation using p-L-arginine complex delivery were tested.

[4] = target: T1, TLR8; experiment: PBMC stimulation with p-L-arginine-complexed RNA ligands, TNF-α ELISA; conditions: human PBMCs, p-L-arginine complexes with 2′3′ cyclic GMP 5 μg/ml, ORN 0.6 μg/ml (FIG. 12)
Protocol: as §1

[5] = human PBMCs, DOTAP delivery, 0.6 μg/ml and 2 μg/ml, 16 hours (FIGS. 10A-10B)
[6] = human PBMCs, DOTAP delivery, 2 μg/ml (FIG. 10B)

| Substance | TNF-α secretion (TLR8 activity) [1, 5] | IFN-α secretion (TLR7 activity) [2, 5] | IFN-α secretion (TLR7 activity) [3] | TNF-α secretion when co-delivered with 2′3′ cyclic GMP [4] | IFN-α secretion when co-delivered with 2′3′ cGMP [3] | further results |
| --- | --- | --- | --- | --- | --- | --- |
| U*C*U*C*U*C*U*C*U*C*U*C*U*C*U*C*U*C*U*C (rU*rC*rU*rC*rU*rC*rU*rC*rU*rC*rU*rC*rU*rC*rU*rC*rU*rC*rU*rC) [ORN7008] | further increased TLR8 activation |  |  |  |  |  |
| C-A-G-A-C-C*U*U*C-C-A-G-A-C-C*U*U*C (CAGACCUUCCAGACCUUC; linkages o5 s3 o6 s3 (s phosphorothioate, o phosphodiester), sugars by position not given here) [ORN7004] |  |  |  |  |  | IFN-α secretion (TLR7 activity) [2]: mildly increased TLR7 activity; TNF-α secretion (TLR8 activity) [1]: markedly increased TLR8 activity |
| C-C-G-A-G-C-C-G-C-fU-U*fU-U*C-C-C (rCrCrGrArGrCrCrGrCfUrU*fUrU*rCrCrC) [ORN7019, 2′-fluoro-modified and phosphodiester-linked version of ORN7013] |  |  |  |  |  | IFN-α secretion (TLR7 activity) ([2]; human PBMCs, DOTAP delivery, 0.6 μg/ml (FIG. 10A)): selective TLR7 activation; TNF-α secretion (TLR8 activity) [1, 6]: also had TLR8-activity |
| UCUCUCUCUCUCUCUCUCUC (UCUCUCUCUCUCUCUCUCUC; unmodified RNA) [ORN7005, derived from pU1C of Zhang et al., 2018, reference compound] | activated TLR8 | activated TLR8 rather than TLR7 | no or only minor IFN-α secretion |  |  | IFN-α response to RNA ligand alone (no 2′3′ cGMP) ([3]; p-L-arginine alone, ORN 0.6 μg/ml, one donor (FIGS. 12, 16A-16B)): unexpectedly high IFN-α response |
| C-G-G-fC-U-C-G-G-C-A-G-A-A-G-C-C-G-G-G-C-C (rCrGrGfCrUrCrGrGrCrArGrArArGrCrCrGrGrGrCrC; hairpin) [ORN7023F, 2′-fluoro-C-modified ORN7023] |  |  | further increasing the activity |  |  | TLR7 selectivity (IFN-α versus TNF-α secretion) ([3]; p-L-arginine delivery (FIG. 7)): maintained TLR7 selectivity |
| C-A-G-A-C-C-U-U-C-C-A-G-A-C-C-U-U-C (CAGACCUUCCAGACCUUC; unmodified RNA) [ORN7001, de novo designed ligand] | induced TLR7 and TLR8 activity | induced TLR7 and TLR8 activity | no or only minor IFN-α secretion |  |  |  |
| U-mC-U-mC-U-mC-U-mC-U-mC-U-mC-U-mC-U-mC-U-mC-U-C (rUmCrUmCrUmCrUmCrUmCrUmCrUmCrUmCrUmCrUrC) [ORN7006, 2′O-methyl-modified version of ORN7005] | reduced both TLR8 and TLR7 activation | reduced both TLR8 and TLR7 activation |  | little to no measurable TNF-α | robust IFN-a induction |  |
| C-C-mU-U-C-mU-U-C-mU-U-C-mU-U-C-mU-U-C-mU-U-C (rCrCmUrUrCmUrUrCmUrUrCmUrUrCmUrUrCmUrUrC) [ORN7010, 2′O-methyl-modified version of ORN7009] | reduced both TLR8 and TLR7 activation | reduced both TLR8 and TLR7 activation |  | little to no measurable TNF-α | robust IFN-a induction |  |
| C*G*G*C*U*C*G*G*C*A*G*A*A*G*C*C*G*G*G*C*C (rC*rG*rG*rC*rU*rC*rG*rG*rC*rA*rG*rA*rA*rG*rC*rC*rG*rG*rG*rC*rC) [ORN7024] |  |  | reduced activity |  |  |  |
| C-C-fU-U-C-fU-U-C-fU-U-C-fU-U-C-fU-U-C-fU-U-C (rCrCfUrUrCfUrUrCfUrUrCfUrUrCfUrUrCfUrUrC) [ORN7011, 2′-fluoro-modified version of ORN7009] |  |  |  | little to no measurable TNF-α | robust IFN-a induction | IFN-α secretion (TLR7 activity) [2, 6]: had TLR7-activity; TNF-α secretion (TLR8 activity) [1, 6]: without TLR8 activity |
| C-C-G-A-G-C-C-G-C*U*U*U*U*C-C-C (rCrCrGrArGrCrCrGrC*rU*rU*rU*rU*rCrCrC) [ORN7022, phosphodiester-linked version of ORN7013] | activated both TLR7 and TLR8 | activated both TLR7 and TLR8 |  |  |  |  |
| U-fC-U-fC-U-fC-U-fC-U-fC-U-fC-U-fC-U-fC-U-fC-U-C (rUfCrUfCrUfCrUfCrUfCrUfCrUfCrUfCrUfCrUrC) [ORN7007, 2′-fluoro-modified version of ORN7005] | also reduced activity | also reduced activity |  | little to no measurable TNF-α | robust IFN-a induction |  |
